Source: article PMC9271048, “Probing strigolactone perception mechanisms with rationally designed small-molecule agonists stimulating germination of root parasitic weeds” (Nature Communications, 2022)
“Also recorded” adds a separate entry of the source.

Tests used:
[1] = system: Arabidopsis thaliana (Col-0); assay: Arabidopsis root hair assay; format: in vivo; settings: Col-0 seedlings on 1/2 MS medium, 1 μM; Supplementary Fig. 15; in µm (unit assumed)
Description: (§1) For Arabidopsis root hair assay, Arabidopsis thaliana (Col-0) seeds were surface sterilized by using 1% NaClO solution for 60 s and 75% ethanol solution for 60 s, and then washed by sterilized distilled water five times. The sterilized seeds were sowed on 1/2 MS media (2.202 g/L Murashige and Skoog basal salts, 0.5 g/L MES, 10 g/L sucrose, and 10 g/L agar, pH 5.7) which contained indicated concentrations of compounds. 0.1% DMSO was used as a negative control. The plates were placed 4 days at 4 °C and then placed vertically under fluorescent white light (100–150 μmol m^−2 s^−1) with 16 h light and 8 h dark at 20 ± 1 °C for 15 days[17],[55]. The root hairs were imaged by OLYMPUS (U-HGLGPS), and the lengths were analyzed by ImageJ. The experiments were repeated three times. For Arabidopsis shoot branching assay: Col-0 and max4-1 seeds were used in this experiment. Seeds surface sterilization was sterilized as described above. The Arabidopsis seedlings were placed on top of the cut black microcentrifuge tubes filled with 1/2 MS. The tubes were placed 4 days at 4 °C and then moved to fluorescent white light (100–150 μmol m^−2 s^−1) with 16 h light and 8 h dark at 20 ± 1 °C for 7 days[26]. The germinated seedlings were grown on hydroponic culture solutions (containing indicated concentrations of 4a, (R)- and (S)-4a), with the solution containing 0.01% DMSO as the negative control. The solutions were renewed every week. After 4 weeks, the numbers of rosette axillaries were analyzed.
type Arabidopsis. a, Representative primary root segments of Col-0 seedlings growing on 1/2 MS
medium with or without 1 μM tested chemicals. Scale bar, […]. b, The average length of root
hair is presented as means ± SD (n = 3 biologically independent experiments).
(1 picture or pasted object on this page, not shown here)

[2] = system: ShHTL7-SMAX1 interaction; assay: Yeast two-hybrid assay ShHTL7-SMAX1; format: cell-based, Striga hermonthica
Description: (§2) To construct plasmids for yeast two-hybrid assays, the CDS of ShHTL7 and AtD14 were cloned into yeast expression vector pBrigde to generate BD-ShHTL7 and BD-AtD14, and the CDS of ShMAX2, AtMAX2, SMAX1 were cloned into pGADT7 to make Gal4 DNA activation domain (AD) constructs, respectively. Primers used for yeast expression vector construction are listed in Supplementary Table 6. Yeast two-hybrid assays were performed using the Yeastmaker Yeast Transformation System 2 (Clontech). In brief, Yeast AH109 cells were co-transformed with specific bait and prey constructs and coated on selective growth medium SD/-Leu-Trp for 3 days at 30 °C, pick the positive constructs into liquid selective growth medium SD/-Leu-Trp shaking for 36 h at 30 °C. Washed yeast cells three times and diluted, made sure OD600 reached 2.5, then serial 10-fold dilutions of yeast cultures were spotted onto selective growth mediums that were supplemented with different concentrations of rac-GR24 and tested molecules, respectively. All yeast transformants were grown on a selective growth medium at 30 °C for 3 days.

[3] = system: ShHTL7-AtMAX2 interaction; assay: Yeast two-hybrid assay ShHTL7-AtMAX2; format: cell-based, Striga hermonthica
Description: as §2

[4] = system: max4-1; assay: Arabidopsis shoot branching assay; format: in vivo, Arabidopsis thaliana; settings: max4-1, 1 μM; Fig. 4c source data
Description: as §1

[5] = biological target: ShHTL7 (Striga hermonthica, UniProt A0A0M3PNA2); assay: Mass spectrometric analysis of covalent modification of ShHTL7; format: biochemical; settings: for mass increase of compound-treated ShHTL7 protein: Q-TOF MS of full-length protein, modification on His246; for covalent modification of ShHTL7: MS of compound-treated ShHTL7
Excerpt: This was consistent with the hydrolysis of natural and synthetic SLs, in which, the (2′R)-isomers are more prone to hydrolysis by ShHTL7 than the (2′S)-isomers[26],[40]. […] Based on the above observations, we inferred that (S)-4a may have similar biochemical properties as 2′R-configured SLs. We then examined whether (S)-4a binding, just as for rac-GR24, would result in a covalently linked molecule in ShHTL7 by using Q-TOF mass spectrometry (SYNAPT-G2-Si, Waters company) analysis. […] For (R)-4a and 4g, a weak peak (increase of 95 Da or 94 Da) of similar modification was found, respectively (Fig. 3). A similar modification was not observed in 4h and 4i treated samples (Supplementary Fig. 12b, c). To furtherly identify the specific modification of the increased mass of 94 Da or 95 Da, we incubated (R)-4a, (S)-4a, and 4g with ShHTL7, followed by gel digestion and MS/MS analysis. […] No covalently linked molecule presence was identified in 4h treated ShHTL7 (Supplementary Fig. 12b). We assume that this is due to the fact that the N-CH3 D-lactam modified His246 is more reactive, resulting in quick decomposition of the intermediate.
For LC-MS analysis: a 200 μL reaction solution (100 mM HEPES, 150 mM NaCl, pH 7.0) containing 10, or 400 μM of tested samples 4a, (R)- and (S)-4a, and 4g-i, and 100 μg of recombinant ShHTL7 or its mutants was incubated at 25 °C for 30 min. Subsequently, the solution was filtered and analyzed by a nanoACQUITY UPLC system, which was directly interfaced with an SYNAPT-G2-Si mass spectrometer produced by Waters Company. For LC-MS/MS analysis, the above chemicals treated ShHTL7 reaction solution was subjected to the SDS-PAGE analysis. The corresponding protein band around 30 KDa was excised, respectively, then digested with trypsin (Promega) in NH4HCO3 solution (50 mM) at 37 °C for 24 h[23],[26]–[28]. The covalent modification of C5H5O2/C6H6O on the peptide was analyzed by a Thermo-Dionex Ultimate 3000 HPLC system, which was directly interfaced with a Thermo Orbitrap Fusion Lumos mass spectrometer. MS-MS spectra are generated by pLabel software[53],[54].

[6] = system: ShHTL7-ShMAX2 interaction; assay: Yeast two-hybrid assay ShHTL7-ShMAX2; format: cell-based, Striga hermonthica
Description: as §2

ShHTL7, sequence (A0A0M3PNA2 entry or part of it): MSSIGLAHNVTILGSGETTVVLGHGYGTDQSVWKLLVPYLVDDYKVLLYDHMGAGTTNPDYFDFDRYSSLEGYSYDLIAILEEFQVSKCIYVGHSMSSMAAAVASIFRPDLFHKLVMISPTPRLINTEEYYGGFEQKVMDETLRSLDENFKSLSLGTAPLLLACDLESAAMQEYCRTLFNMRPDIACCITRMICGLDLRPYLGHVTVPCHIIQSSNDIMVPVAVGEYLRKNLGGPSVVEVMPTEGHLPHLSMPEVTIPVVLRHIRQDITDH

Compound	average length of root hair, source data average [1]	No. of axillary shoots, source data average [4]	mass increase of compound-treated ShHTL7 protein [5] [Da]	induction of ShHTL7-SMAX1 interaction (Y2H) ([2]; 200 μM)	induction of ShHTL7-AtMAX2 interaction (Y2H) ([3]; 200 μM)	also measured
CC1=C[C@H](OC(=O)N2CCN(C(=O)COc3ccc(Br)cc3C)CC2)OC1=O [(S)-4a]	211.816	2.6	94			induction of ShHTL7-SMAX1 interaction (Y2H) ([2]; 1 μM): strongly induce the interaction; induction of ShHTL7-AtMAX2 interaction (Y2H) ([3]; 1 μM): strongly induce the interaction; induction of ShHTL7-ShMAX2 interaction (Y2H) ([6]; 0.01 μM (10 nM)): could still promote the ShHTL7-ShMAX2 interaction; also recorded: promoted ShHTL7-ShMAX2 interaction; induction of ShHTL7-ShMAX2 interaction (Y2H) ([6]; 1 μM): strongly induce the interaction
CC1=CC(OC(=O)N2CCN(C(=O)COc3ccc(Br)cc3C)CC2)CC1=O (centres unmarked) [4g]			94	only weak ligand-induced interactions	only weak ligand-induced interactions	
CC1=CC(OC(=O)N2CCN(C(=O)COc3ccc(Br)cc3C)CC2)N(C)C1=O (centres unmarked) [4h]						covalent modification of ShHTL7 [5]: not observed
CC1=CC(CC(=O)N2CCN(C(=O)COc3ccc(Br)cc3C)CC2)OC1=O (centres unmarked) [4i]				almost no ligand-induced interactions were observed	almost no ligand-induced interactions were observed	covalent modification of ShHTL7 [5]: not observed; induction of ShHTL7-ShMAX2 interaction (Y2H) ([6]; 200 μM): almost no ligand-induced interactions were observed
CC1=C[C@H](O/C=C2/C(=O)O[C@@H]3c4ccccc4C[C@H]23)OC1=O (racemic) [rac-GR24, reference compound]	474.342					
CC1=C[C@@H](OC(=O)N2CCN(C(=O)COc3ccc(Br)cc3C)CC2)OC1=O [(R)-4a]	172.727	3.667	95	did induce the interaction	did induce the interaction	induction of ShHTL7-SMAX1 interaction (Y2H) ([2]; 1 and 5 μM): no ShHTL7-SMAX1 or ShHTL7-AtMAX2 interactions were detected; induction of ShHTL7-AtMAX2 interaction (Y2H) ([3]; 1 and 5 μM): no ShHTL7-SMAX1 or ShHTL7-AtMAX2 interactions were detected
CC1=CC(OC(=O)N2CCN(C(=O)COc3ccc(Br)cc3C)CC2)OC1=O (centres unmarked) [4a]	163.912	3.5				induction of ShHTL7-SMAX1 interaction (Y2H) ([2]; 1 μM): strongly induce the interaction; induction of ShHTL7-AtMAX2 interaction (Y2H) ([3]; 1 μM): strongly induce the interaction; induction of ShHTL7-ShMAX2 interaction (Y2H) ([6]; 0.01 μM (10 nM)): could still promote the ShHTL7-ShMAX2 interaction; induction of ShHTL7-ShMAX2 interaction (Y2H) ([6]; 1 μM): strongly induce the interaction
